Patent US20140155406A1, “4-IMIDAZOPYRIDAZIN-1-YL-BENZAMIDES AND 4-IMIDAZOTRIAZIN-1-YL-BENZAMIDES BTK INHIBITORS” (priority 2011, published 2014)

Columns and labels:
Assay type in all cases: biochemical
Lck enzyme = biological target: T1, Lck enzyme (Homo sapiens, UniProt P06239); experiment: Lck enzyme activity, IMAP fluorescence polarization assay; settings: 60 min pre-incubation, 6 μM ATP (Km)
T1 construct: purchased Millipore 14-442
Procedure: Lck enzyme activity is measured using the IMAP (immobilized metal ion affinity-based fluorescence polarization) assay as outlined below.
Lck enzyme (Millipore catalog#14-442), is diluted to 0.4 U/mL in KR buffer (10 mM Tris-HCl, 10 mM MgCl2, 0.01% Tween-20, 0.05% NaN3, 1 mM DTT, 2 mM MnCl2, pH 7.2). Serial dilution log 10 from 2 mM to 63.2 nM of test compounds are made in 100% DMSO. The dilutions in DMSO are then diluted 50-fold in KR-buffer of which 5 μl is used in the assay, leading to a final compound concentration range in the assay from 10 μM to 0.316 nM. 5 μL/well of test compound in KR buffer (final DMSO concentration in the assay is 1%) is mixed with 5 μl/well of 0.4 U/mL Lck enzyme (final concentration in the assay is 0.1 U/mL). Test compounds and Lck enzyme are pre-incubated 60 minutes at room temperature, before adding 5 μL/well of 400 nM Fluorescin labeled substrate peptide (p34cdc2 substrate peptide, e.g. #R7157/#R7172, Molecular Devices) in KR-buffer. Final peptide substrate concentration in assay is 100 nM. The kinase assay is started by adding 5 μL/well of 24 μM ATP in KR-buffer (final ATP concentration is 6 μM ATP, Km ATP in Lck IMAP assay). Following incubation for 2 h at room temperature the enzyme reaction is stopped by adding 40 μL/well IMAP Progressive Binding Solution (according to suppliers (Molecular Devices) protocol using 75% 1× buffer A and 25% 1× buffer B with 1:600 Progressive Binding Solution). After 60 min incubation at room temperature in the dark the FP signal is read. Fluorescence at 535 nm is measured using parallel and perpendicular filters to determine differences in rotation due to binding of the phosphorylated substrate peptide to the beads. Values are calculated as percentage of the difference in readout (ΔmPi) of the controls with and without ATP. EC50 values are determined by curve fitting of the experimental results using Activity Base.

FynT enzyme = biological target: T2, FynT enzyme (Homo sapiens, UniProt P06241); experiment: FynT enzyme activity, IMAP fluorescence polarization assay; settings: 60 min pre-incubation, 0.2 μM ATP (Km)
T2 construct: purchased Biomol SE-287
Procedure: FynT enzyme activity is measured using the IMAP (immobilized metal ion affinity-based fluorescence polarization) assay as outlined below.
FynT enzyme (Biomol catalog# SE-287), is diluted to 0.5 μg/mL in KR buffer (10 mM Tris-HCl, 10 mM MgCl2, 0.01% Tween-20, 0.05% NaN3, 1 mM DTT, 2 mM MnCl2, pH 7.2). Serial dilution log 10 from 2 mM to 63.2 nM of test compounds are made in 100% DMSO. The dilutions in DMSO are then diluted 50-fold in KR-buffer of which 5 μl is used in the assay, leading to a final compound concentration range in the assay from 10 μM to 0.316 nM. 5 μL/well of test compound in KR buffer (final DMSO concentration in the assay is 1%) is mixed with 5 μl/well of 0.5 μg/mL FynT enzyme (final concentration in the assay is 125 ng/mL). Test compounds and FynT enzyme are pre-incubated 60 minutes at room temperature, before adding 5 μL/well of 400 nM Fluorescin labeled substrate peptide (p34cdc2 substrate peptide, e.g. #R7157/#R7172, Molecular Devices) in KR-buffer. Final peptide substrate concentration in assay is 100 nM. The kinase assay is started by adding 5 μL/well of 0.8 μM ATP in KR-buffer (final ATP concentration is 0.2 μM ATP, Km ATP in FynT IMAP assay). Following incubation for 2 h at room temperature the enzyme reaction is stopped by adding 40 μL/well IMAP Progressive Binding Solution (according to suppliers (Molecular Devices) protocol using 75% 1× buffer A and 25% 1× buffer B with 1:600 Progressive Binding Solution). After 60 min incubation at room temperature in the dark the FP signal is read. Fluorescence at 535 nm is measured using parallel and perpendicular filters to determine differences in rotation due to binding of the phosphorylated substrate peptide to the beads. Values are calculated as percentage of the difference in readout (ΔmPi) of the controls with and without ATP. EC50 values are determined by curve fitting of the experimental results using Activity Base.

Src enzyme = biological target: T3, Src enzyme (Homo sapiens, UniProt P12931); experiment: Src enzyme activity, IMAP fluorescence polarization assay; settings: 60 min pre-incubation, 4 μM ATP (Km)
T3 construct: purchased Millipore 14-326
Procedure: Src enzyme activity is measured using the IMAP (immobilized metal ion affinity-based fluorescence polarization) assay as outlined below.
Src enzyme (Millipore catalog#14-326), is diluted to 0.8 U/mL in KR buffer (10 mM Tris-HCl, 10 mM MgCl2, 0.01% Tween-20, 0.05% NaN3, 1 mM DTT, 2 mM MnCl2, pH 7.2).
Serial dilution log 10 from 2 mM to 63.2 nM of test compounds are made in 100% DMSO. The dilutions in DMSO are then diluted 50-fold in KR-buffer of which 5 μl is used in the assay, leading to a final compound concentration range in the assay from 10 μM to 0.316 nM. 5 μL/well of test compound in KR buffer (final DMSO concentration in the assay is 1%) is mixed with 5 μl/well of 0.8 U/mL Src enzyme (final concentration in the assay is 0.2 U/mL). Test compounds and Src enzyme are pre-incubated 60 minutes at room temperature, before adding 5 μL/well of 400 nM Fluorescin labeled substrate peptide (p34cdc2 substrate peptide, e.g. #R7157/#R7172, Molecular Devices) in KR-buffer. Final peptide substrate concentration in assay is 100 nM. The kinase assay is started by adding 5 μL/well of 16 μM ATP in KR-buffer (final ATP concentration is 4 μM ATP, Km ATP in Src IMAP assay). Following incubation for 2 h at room temperature the enzyme reaction is stopped by adding 40 μL/well IMAP Progressive Binding Solution (according to suppliers (Molecular Devices) protocol using 75% 1× buffer A and 25% 1× buffer B with 1:600 Progressive Binding Solution). After 60 min incubation at room temperature in the dark the FP signal is read. Fluorescence at 535 nm is measured using parallel and perpendicular filters to determine differences in rotation due to binding of the phosphorylated substrate peptide to the beads. Values are calculated as percentage of the difference in readout (ΔmPi) of the controls with and without ATP. EC50 values are determined by curve fitting of the experimental results using Activity Base.

Lyn enzyme = biological target: T4, Lyn enzyme (Homo sapiens, UniProt P07948); experiment: Lyn enzyme activity, IMAP fluorescence polarization assay; settings: 60 min pre-incubation, 2 μM ATP (Km)
T4 construct: purchased Millipore 14-510
Procedure: Lyn enzyme activity is measured using the IMAP (immobilized metal ion affinity-based fluorescence polarization) assay as outlined below.
Lyn enzyme (Millipore catalog#14-510), is diluted to 250 mU/mL in KR buffer (10 mM Tris-HCl, 10 mM MgCl2, 0.01% Tween-20, 0.05% NaN3, 1 mM DTT, 2 mM MnCl2, pH 7.2). Serial dilution log 10 from 2 mM to 63.2 nM of test compounds are made in 100% DMSO. The dilutions in DMSO are then diluted 50-fold in KR-buffer of which 5 μl is used in the assay, leading to a final compound concentration range in the assay from 10 μM to 0.316 nM. 5 μL/well of test compound in KR buffer (final DMSO concentration in the assay is 1%) is mixed with 5 μl/well of 250 mU/mL Lyn enzyme (final concentration in the assay is 62.5 mU/mL). Test compounds and Lyn enzyme are pre-incubated 60 minutes at room temperature, before adding 5 μL/well of 400 nM Fluorescin labeled substrate peptide (Blk/Lyntide substrate, e.g. #R7188/#R7233, Molecular Devices) in KR-buffer. Final peptide substrate concentration in assay is 100 nM. The kinase assay is started by adding 5 μL/well of 8 μM ATP in KR-buffer (final ATP concentration is 2 μM ATP, Km ATP in Lyn IMAP assay). Following incubation for 2 h at room temperature the enzyme reaction is stopped by adding 40 μL/well IMAP Progressive Binding Solution (according to suppliers (Molecular Devices) protocol using 75% 1× buffer A and 25% 1× buffer B with 1:600 Progressive Binding Solution). After 60 min incubation at room temperature in the dark the FP signal is read. Fluorescence at 535 nm is measured using parallel and perpendicular filters to determine differences in rotation due to binding of the phosphorylated substrate peptide to the beads. Values are calculated as percentage of the difference in readout (ΔmPi) of the controls with and without ATP. EC50 values are determined by curve fitting of the experimental results using Activity Base.

Measured: EC50

T3 sequence (P12931 whole entry): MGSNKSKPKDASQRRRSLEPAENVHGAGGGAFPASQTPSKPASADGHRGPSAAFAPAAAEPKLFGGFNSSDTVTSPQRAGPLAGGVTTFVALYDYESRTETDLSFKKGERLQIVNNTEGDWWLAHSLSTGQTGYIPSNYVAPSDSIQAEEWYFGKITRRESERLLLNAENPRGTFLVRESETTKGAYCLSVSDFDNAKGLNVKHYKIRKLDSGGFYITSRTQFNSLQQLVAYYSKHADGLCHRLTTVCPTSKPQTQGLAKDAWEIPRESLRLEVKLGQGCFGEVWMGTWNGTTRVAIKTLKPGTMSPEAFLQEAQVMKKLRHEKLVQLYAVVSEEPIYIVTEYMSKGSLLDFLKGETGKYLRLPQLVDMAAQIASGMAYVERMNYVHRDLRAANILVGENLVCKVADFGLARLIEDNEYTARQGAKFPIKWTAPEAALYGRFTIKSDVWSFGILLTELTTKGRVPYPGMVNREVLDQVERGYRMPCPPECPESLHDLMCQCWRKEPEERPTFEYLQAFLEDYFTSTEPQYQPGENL
T4 sequence (P07948 whole entry): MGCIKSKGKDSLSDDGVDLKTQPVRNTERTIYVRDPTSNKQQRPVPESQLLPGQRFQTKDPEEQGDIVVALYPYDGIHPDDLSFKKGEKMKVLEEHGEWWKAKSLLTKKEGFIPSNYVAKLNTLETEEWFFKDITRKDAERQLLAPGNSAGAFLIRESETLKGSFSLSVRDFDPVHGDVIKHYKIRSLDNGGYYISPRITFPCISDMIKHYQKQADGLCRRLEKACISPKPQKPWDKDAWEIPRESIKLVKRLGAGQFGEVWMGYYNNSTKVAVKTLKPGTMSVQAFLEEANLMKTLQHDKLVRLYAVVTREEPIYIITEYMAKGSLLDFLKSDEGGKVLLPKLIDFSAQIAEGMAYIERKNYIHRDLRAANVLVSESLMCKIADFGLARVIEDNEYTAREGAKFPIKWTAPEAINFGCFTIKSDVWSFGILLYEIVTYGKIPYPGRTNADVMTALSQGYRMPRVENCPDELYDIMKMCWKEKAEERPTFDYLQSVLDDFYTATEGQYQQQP
T1 sequence (P06239 whole entry): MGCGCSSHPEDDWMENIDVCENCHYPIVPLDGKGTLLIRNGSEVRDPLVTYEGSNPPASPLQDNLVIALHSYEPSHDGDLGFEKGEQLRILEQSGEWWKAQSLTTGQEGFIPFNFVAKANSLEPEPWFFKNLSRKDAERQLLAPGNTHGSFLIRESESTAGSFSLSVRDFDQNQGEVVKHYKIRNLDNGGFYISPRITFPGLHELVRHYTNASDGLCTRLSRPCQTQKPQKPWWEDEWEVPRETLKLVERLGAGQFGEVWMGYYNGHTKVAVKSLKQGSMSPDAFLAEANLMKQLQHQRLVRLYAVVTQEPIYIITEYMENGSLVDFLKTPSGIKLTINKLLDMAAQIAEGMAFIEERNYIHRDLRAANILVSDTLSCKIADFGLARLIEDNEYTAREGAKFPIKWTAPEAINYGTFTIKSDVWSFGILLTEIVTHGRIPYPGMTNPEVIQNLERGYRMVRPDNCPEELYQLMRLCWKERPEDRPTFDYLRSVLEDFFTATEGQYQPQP
T2 sequence (P06241 1-534 isoform P06241-2): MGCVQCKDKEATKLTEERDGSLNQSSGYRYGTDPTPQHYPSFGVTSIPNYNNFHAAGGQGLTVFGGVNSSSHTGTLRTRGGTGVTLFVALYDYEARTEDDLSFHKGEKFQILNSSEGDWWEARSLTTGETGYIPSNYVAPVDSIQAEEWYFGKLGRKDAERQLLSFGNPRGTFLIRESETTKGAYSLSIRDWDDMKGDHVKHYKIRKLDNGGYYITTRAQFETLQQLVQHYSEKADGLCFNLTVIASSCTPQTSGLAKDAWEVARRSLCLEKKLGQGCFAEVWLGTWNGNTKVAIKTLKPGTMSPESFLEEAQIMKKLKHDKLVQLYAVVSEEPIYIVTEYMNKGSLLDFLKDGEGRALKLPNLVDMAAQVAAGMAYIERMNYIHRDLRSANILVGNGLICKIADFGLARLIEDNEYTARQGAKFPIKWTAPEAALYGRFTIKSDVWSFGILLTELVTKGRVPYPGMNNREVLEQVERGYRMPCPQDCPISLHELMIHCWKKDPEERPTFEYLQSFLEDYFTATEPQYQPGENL

Cc1nccn2c([C@@H]3CCCN3C(=O)/C=C/CN(C)C)nc(-c3ccc(C(=O)Nc4ccccn4)cc3)c12 [Example 31, (S,E)-4-(3-(1-(4-(dimethylamino)but-2-enoyl)pyrrolidin-2-yl)-8-methylimidazo[1,5-a]pyrazin-1-yl)-N-(pyridin-2-yl)benzamide]
≥ 1000 nM: all assays above

CC#CC(=O)N1CCC[C@H]1c1nc(-c2ccc(C(=O)Nc3ccccn3)cc2)c2c(C)nccn12 [Example 1, (S)-4-(3-(1-But-2-ynoylpyrrolidin-2-yl)-8-methylimidazo[1,5-a]pyrazin-1-yl)-N-(pyridin-2-yl)benzamide]
≥ 1000 nM: all assays above

CC#CC(=O)N1CCC[C@H]1c1nc(-c2ccc(C(=O)Nc3cc(C(F)(F)F)ccn3)cc2)c2c(C)nccn12 [Example 26, (S)-4-(3-(1-but-2-ynoylpyrrolidin-2-yl)-8-methylimidazo[1,5-a]pyrazin-1-yl)-N-(4-(trifluoromethyl)pyridin-2-yl)benzamide]
≥ 1000 nM: all assays above

C=CC(=O)N1CCC[C@H]1c1nc(-c2ccc(C(=O)Nc3cc(CC)ccn3)cc2)c2c(C)nccn12 [Example 14, (S)-4-(3-(1-Acryloylpyrrolidin-2-yl)-8-methylimidazo[1,5-a]pyrazin-1-yl)-N-(4-ethylpyridin-2-yl)benzamide]
≥ 1000 nM: all assays above

CC#CC(=O)N1CCC[C@H]1c1nc(-c2ccc(C(=O)Nc3cc(CCC)ccn3)cc2)c2c(C)nccn12 [Example 33, (S)-4-(3-(1-but-2-ynoylpyrrolidin-2-yl)-8-methylimidazo[1,5-a]pyrazin-1-yl)-N-(4-propylpyridin-2-yl)benzamide]
≥ 1000 nM: all assays above

CC#CC(=O)N1CCC[C@H]1c1nc(-c2ccc(C(=O)Nc3cc(OC)ccn3)cc2)c2c(C)nccn12 [Example 16, (S)-4-(3-(1-but-2-ynoylpyrrolidin-2-yl)-8-methylimidazo[1,5-a]pyrazin-1-yl)-N-(4-methoxypyridin-2-yl)benzamide]
≥ 1000 nM: all assays above
